Values of other authors, collected in patent US7270977B2, “Polypeptides for identifying fungicidally active compounds” (priority 2001, dated 2007).
“Also recorded” adds a separate entry of the source.

Columns and labels:
C. albicans cells = conditions: cited from earlier work; for effect on C. albicans: in words
[1] = target: recombinant IMPDH from Pneumocystis carinii (Pneumocystis carinii, UniProt Q12658); conditions: recombinant P. carinii IMPDH; read-out: concentration resulting in 50% inhibition of the activity of the recombinant IMPDH; cited from earlier work
Cryptococcus neoformans = conditions: in words; cited from earlier work
Candida guilliermondii = conditions: in words; cited from earlier work
Candida krusei = conditions: in words; cited from earlier work
Candida pseudotropicalis = conditions: in words; cited from earlier work
Hansenula anomala = conditions: in words; cited from earlier work
S. cerevisiae = conditions: in words; cited from earlier work

Chain of recombinant IMPDH from Pneumocystis carinii (Q12658 76-529): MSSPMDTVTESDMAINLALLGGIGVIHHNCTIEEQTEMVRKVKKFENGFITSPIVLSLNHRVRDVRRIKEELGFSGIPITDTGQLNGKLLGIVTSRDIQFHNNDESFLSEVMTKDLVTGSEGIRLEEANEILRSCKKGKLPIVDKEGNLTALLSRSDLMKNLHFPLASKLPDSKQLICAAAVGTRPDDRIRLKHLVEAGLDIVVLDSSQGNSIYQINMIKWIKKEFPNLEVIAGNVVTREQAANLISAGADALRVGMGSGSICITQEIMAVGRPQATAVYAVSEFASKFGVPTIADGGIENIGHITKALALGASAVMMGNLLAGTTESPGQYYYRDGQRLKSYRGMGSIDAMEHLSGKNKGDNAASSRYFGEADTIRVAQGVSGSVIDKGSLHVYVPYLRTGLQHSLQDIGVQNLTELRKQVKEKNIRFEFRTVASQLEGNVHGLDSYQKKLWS

| Compound | effect on C. albicans (C. albicans cells) | IC50 [1] [µM] | effect on growth in vitro (Cryptococcus neoformans) | effect on growth in vitro (Candida guilliermondii) | effect on growth in vitro (Candida krusei) | effect on growth in vitro (Candida pseudotropicalis) | effect on growth in vitro (Hansenula anomala) | effect on growth in vitro (S. cerevisiae) | concentration inhibiting growth of C. albicans cells (C. albicans cells; wild-type cells) [µg/mL] |
| --- | --- | --- | --- | --- | --- | --- | --- | --- | --- |
| NC(=O)c1ncn([C@@H]2O[C@H](CO)[C@@H](O)[C@H]2O)c1O [mizoribine] | virtually ineffective | – | – | – | – | – | – | – | – |
| COc1c(C)c2c(c(O)c1C/C=C(\C)CCC(=O)O)C(=O)OC2 [mycophenolic acid] | inhibits in vitro the growth; also recorded: acts fungistatically | 25 | inhibits in vitro the growth | ineffective | ineffective | ineffective | ineffective | ineffective; also recorded: no effect | 1 |
